Reference: patent publication US4764461A, “Tellurium and selenium compounds for the induction of in vivo and in vitro production of cytokines” (priority 1987, dated 1988)
“And” between values parts separate entries of the source, which are not always exact repeats. Identical values can stand only once. “Also recorded” adds a separate entry of the source.

What was measured:
[1] = system: fibrosarcoma cells; assay: Survival of mice with methylcholanthrene-induced fibrosarcoma cells (Example 6); assay type: in vivo, Balb-c mice; conditions: until just after the increased dosage regimen (day 39)
Procedure: Balb-c mice, age 7 weeks were injected with methylcholanthrene to induce the formation of fibrosarcoma cells according to the procedure of Example 5. The test animals were divided into two groups.
(a) control (0.2 IP of 40% DMSO and 60% PBS)

[2] = system: IL-2; mouse spleen cells; assay: In vitro induction of IL-2 from mouse spleen cells (Example 7); assay type: cell-based, Balb-c mice; conditions: baseline 4,000-5,000 CPM
Procedure: (§1) This example describes the in vitro making of IL-2 and CSF from mouse spleen cells using the compound of Example 1 as the extrinsic stimulating agent.
(§2) Spleens were removed from 15, male Balb-c mice 6 to 8 weeks of age. The spleen cells were pushed through stainless steel 60 mesh (U.S. standard) nets resting in […] Petri dishes containing PBS in order to separate the cells. The cells were then collected into centrifuge tubes and spun at 1000 rpm for 10 minutes. The supernatant was discarded and cells were treated with 5 ml of hypotonic buffer (0.15MNH4 Cl; 0.01M KHCO3 dissolved in double distilled water, pH 7.2) for exactly two minutes. Thereafter, PBS was added to the cells and the test tubes were centrifuged for 10 minutes at 1000 rpm. The cells were rinsed twice and counted in a heamocytometer using trypan blue to test for viability. The cells were brought to a concentration of 10^7 viable cells/ml. The cells were contacted with varying amounts of the compound of Example 1 in 1 ml of 40% DMSO 60% PBS.

[3] = system: CSF; mouse spleen cells; assay: In vitro induction of colony stimulating factor (CSF) from mouse spleen cells (Example 7); assay type: cell-based, Balb-c mice; conditions: baseline 70-80 colonies/dish
Procedure: as §1, §2

[4] = system: IL-2; human mononuclear cells; assay: IL-2 activity of human mononuclear cell supernatants on CTLD cells (Example 8); assay type: cell-based; conditions: control CTLD cells 3,500
Procedure: Human mononuclear cells were obtained as described above and cultured for 72 hours at a concentration of 10^6 cells/ml enriched RPMI, in the presence of varying concentrations of the compound of Example 1. Culture supernatants were collected, centrifuged and tested for IL-2 activity by using 50% of the volume of the supernatant assaying their ability to support the proliferation of the IL-2 dependent cell line CTLD.

[5] = system: IL-2; assay: Oral administration: induction of lymphokines, IL-2 content of spleen cell supernatants (Example 13); assay type: in vivo, Balb-C mice; conditions: for IL-2, percent increase as compared to control: 4 days
Procedure: The water solution was prepared by dissolving the compounds in PBS at a concentration of 50 μg/ml PBS and diluting the resulting solution to the desired concentration. The compounds were administered over a 4 day period. The exact amount of liquid intake was recorded daily. […] The cells were incubated at a concentration of 10^7 cells/ml in enriched RPMI containing 2 μg/ml of con-A for 24 hours at 37° C. The supernatants were collected and tested for IL-2 content.
After 24 hours the mice were sacrificed and the spleens were processed as described above.

[6] = system: IL-2; human mononuclear cells; assay: IL-2 production by human mononuclear cells of normal donors and systemic lupus patients, with or without PHA (Example 20); assay type: cell-based
Procedure: Using the procedure of Example 4, human mononuclear cells were tested for their ability to produce IL-2 after induction with PHA or in unstimulated cells from normal donors and from patients suffering from systemic lupus erthyrematous. The IL-2 content was tested according to the procedure of Example 3 using the CTLD IL-2 dependent cell line.
*Dilution of 1 part of 0.2 ml of PBS containing 5 μg of compound of Ex
**CPM × 10^-3 of ^3 H Thymidine of 5 × 10^4 CTLD
cells in presence of 1:2 dilution of the supernatants as in Ex. 3. PG,4

[7] = system: West Nile virus (WNV); assay: West Nile virus infection in mice (Example 22); assay type: in vivo, ICR mice
Procedure: The effect of the compound of Example 1 on an infection with West Nile virus (WNV) was determined. WNV is a toga virus of the flavivirus group, a positive single stranded RNA virus, which when injected IP to mice usually kills them within 5-8 days as a result of extensive damage to the central nervous system. For this study ICR mice (3 wks of age) were injected IP with the virus at the concentration of 10^3 or 10^4 LD 50 units/mouse. Injections of 10 μg/0.2 ml PBS/mouse of the compound of Ex. 1 were given on day -1 (one day prior to injection of virus) and 6 days after injection of virus.
In a second experiment, mice were injected with 10^3 IPLD50 virus and received injections of the compound of Example 1 (1 μg/0.2 ml PBS/mouse) on days -1, 1, 2 and 4.

[8] = system: West Nile virus (WNV); assay: WNV yield in mouse macrophage cultures (Example 23); assay type: cell-based, WNV in ICR mouse macrophages; conditions: for Virus Yield (PFU/ml): virus alone 2 × 10^4 /ml
Procedure: Varying amounts of the compound of Example 1 (5 μg, 1 μg, 0.1 μg) were incubated with a monolayer of mouse macrophages for 24 h. […] All cultures were then infected with 10^4 PFU/plate. After 72 h incubation the supernatants were collected and the virus was titrated against Vera cells.

[9] = system: mice; assay: Preliminary toxicity studies in mice; assay type: in vivo; conditions: 6 week old mice
Procedure: The compounds may be used as anti-bacterial or anti-viral agents in plants or in animals. Virus infections such as West Nile virus infections in mice are susceptible to the compound of the Example 1 at a dose of 10 μg/day/mouse. Plant bacterial infections such as crown gall caused by Agrobacterium tumefaciens may be treated or prevented by the application of a 0.1% solution of compounds of the invention.

[10] = system: IL-2; spleen cells; assay: In vitro IL-2 secretion of mouse spleen cells, CTLD assay (Example 17); assay type: cell-based, Balb/c mice; conditions: IL-2 activity, 24 h; for Spleen Cells (cpm): control 2,550
Procedure: The compounds listed below were tested in vitro at various concentrations that ranged from 10 μg/ml cells to 1×10^-6 μg/ml of cell mixtures. Cells were obtained from spleens of male Balb/c mice 6-8 weeks of age. Spleens were pushed through a stainless steel 60 mesh strainer to separate cells.

[11] = system: IL-2 receptors of human mononuclear cells; assay: Induction of IL-2 receptors of human mononuclear cells, proliferation by 3HT uptake (Example 18); assay type: cell-based
Procedure: Human MNC were brought to a concentration of 10^6 cells/ml. RPMI+10% FCS. Aliquots of 0.2 ml. were placed in duplicate wells of microdishes and plates were incubated at 37 C for 24 hrs. […] Plates were further incubated for 48 hrs. and labelled with 3H thymidine 24 hrs. before harvesting.
The proliferation was measured by ^3 HT uptake as described by Gillis et al, J. Immunol. […] The results are expressed in counts per minute.

[12] = system: human mononuclear cells; assay: Proliferation of human mononuclear cells (Example 19); assay type: cell-based; conditions: at any concentration that was tested
Procedure: Human mononuclear cells were obtained by layering heparinized blood over a Ficoll/Hypaque gradient. The mononuclear cells were resuspended in enriched RPMI, rinsed three times and brought to a concentrations of 5×10^5 cells/ml encriched RPMI. […] Aliquots of 0.2 ml of each sample were placed in wells of microplates (triplicates). Microplates were incubated for 72 hours at 37° C. after which they were labelled with H^3 methyl-thymidine 1 uCi/well for an additional 24 hours. Cells were then harvested with a cell harvester.

[13] = system: IL-2 receptors; human mononuclear cells; assay: Detection of IL-2 receptor sites with fluoresceinated antibody (Example 21); assay type: cell-based; conditions: 1 μg/ml, 24 h; control 2%
Procedure: This example provides an assay to detect the presence of receptor sites for IL-2. […] The cells were washed twice with PBS and then incubated with a specific fluoresceinated antibody against IL-2 receptors as described in Uchiyama et al, J. Immunol.

For Cl[TeH]1(Cl)(Cl)OCCO1 [Example 1], the “mortality results for group (b)” value [1] was 0%, the “IL-2 (cpm)” value ([2]; 5 pg) was 12,000 cpm and the “IL-2 (cpm)” value ([2]; 50 pg) was 38,000 cpm. For the same molecule, the “IL-2 (cpm)” value ([2]; 500 pg) was 30,000 cpm, the “IL-2 (cpm)” value ([2]; 5 ng) was 15,000 cpm and the “IL-2 (cpm)” value ([2]; 50 ng) was 6,000 cpm. The “IL-2 (cpm)” value ([2]; 500 ng) was 5,000 cpm, the “IL-2 (cpm)” value ([2]; 5 μg) was 5,000 cpm and the “IL-2 (cpm)” value ([2]; 50 μg) was 5,000 cpm. The “CSF (colonies/dish)” value ([3]; 5 pg) was 140 colonies/dish, the “CSF (colonies/dish)” value ([3]; 50 pg) was 260 colonies/dish and the “CSF (colonies/dish)” value ([3]; 5 ng) was 120 colonies/dish. The “CSF (colonies/dish)” value ([3]; 50 ng) was 75 colonies/dish, the “CSF (colonies/dish)” value ([3]; 500 ng) was 25 colonies/dish and the “CSF (colonies/dish)” value ([3]; 5 μg) was 5 colonies/dish. For the same molecule, the “CSF (colonies/dish)” value ([3]; 50 μg) was 2 colonies/dish, the “IL-2 activity, Counts per minute” value ([4]; 1 ng) was 11,000 Counts per minute and the “IL-2 activity, Counts per minute” value ([4]; 10 ng) was 1,500 Counts per minute. For the same molecule, the “IL-2 activity, Counts per minute” value ([4]; 1 μg) was 250 Counts per minute, the “IL-2 activity, Counts per minute” value ([4]; 100 μg) was 280 Counts per minute and the “IL-2, percent increase as compared to control” value (shortened to “IL-2, percent increase”) ([5]; 1 μg/ml drinking water) was 50%. For the same molecule, the inducing lymphokine production ([5]; given in dry form or when hydrolyzed in an aqueous diluent) was “active for inducing lymphokine production”, the “IL-2 production, CPM × 10^-3 of 3H thymidine” value (from here on “IL-2 production”) ([6]; SLE, PHA +, 5 μg 0.2 ml PBS) was 6.3 CPM × 10^-3 and 8.2 CPM × 10^-3 and 4.1 CPM × 10^-3 and the “IL-2 production” value ([6]; SLE, PHA +, 1:100 PBS) was 24.0 CPM × 10^-3. The “IL-2 production” value ([6]; SLE, PHA -, 5 μg 0.2 ml PBS) was 2.0 CPM × 10^-3 and 2.4 CPM × 10^-3, the “IL-2 production” value ([6]; normal, PHA -, 5 μg 0.2 ml PBS) was 2.3 CPM × 10^-3 and 2.1 CPM × 10^-3 and the “West Nile virus infections in mice” value ([7]; 10 μg/day/mouse) was “susceptible”. The “animals remained alive after 8 days” value ([7]; 10^3 or 10^4 LD50 virus, 10 μg/mouse) was “three out of five”, the “# Alive/Total Animals” value ([7]; Table A, no virus (0), compound alone) was 6/6 and the “further survival of the remaining three mice” value ([7]; second experiment, after day 8) was “Two out of the remaining three survived an additional 8 days; also recorded: the third remained alive without any manifestations of clinical symptoms”. For the same molecule, the “# Alive/Total” value ([7]; second experiment, day 8, 10^3 IPLD50 virus, 1 μg/mouse on days -1, 1, 2 and 4, virus alone 0/8) was 3 out of 5 and 3/5, the “# Alive/Total” value ([7]; second experiment, day 8, compound alone, no virus) was 5/5 and the “reduction in virus yield” value ([8]; 0.1 μg) was “ten”. For the same molecule, the “Virus Yield (PFU/ml)” value ([8]; 0.1 μg/plate) was 2 × 10^3 PFU/ml, the “Virus Yield (PFU/ml)” value ([8]; 1 μg/plate) was 5 × 10^2 PFU/ml and the LD50 [9] was 300 ug./25 g of body weight.

Cl[Te]1(Cl)OCCO1 [Example 2] was tested, and the “IL-2, percent increase” value ([5]; 1 μg/ml drinking water) was 30%, the “IL-2, percent increase” value ([5]; 25 μg/ml drinking water) was 35% and the “Spleen Cells (cpm)” value [10] was 18,000 cpm.

CC(=O)O[Te](OC(C)=O)(c1ccccc1)c1ccccc1 [Ph2 Te(OCOCH3)2] was tested, and the “Spleen Cells (cpm)” value [10] was 3,500 cpm.

With O=C(O[Te](OC(=O)c1ccccc1)(c1ccccc1)c1ccccc1)c1ccccc1 [Ph2 Te(OCOPh)2] the “Spleen Cells (cpm)” value [10] was 4,300 cpm.

For Cl[Te](Cl)(c1ccccc1)c1ccccc1 [Ph2 TeCl2], the “Spleen Cells (cpm)” value [10] was 2,300 cpm.

Cl[Te](Cl)(Cl)c1ccccc1 [PhTeCl3] was tested, and the “Spleen Cells (cpm)” value [10] was 18,000 cpm.

With O=[Te]=O [TeO2, Tellurium dioxide] the “Spleen Cells (cpm)” value [10] was 17,055 cpm, the “Spleen Cells, percent increase” value ([10]; control 2,550 cpm) was 508% and the “proliferation (3HT uptake), counts per minute” value (“proliferation … per minute” below) ([11]; Test A, 1 μg/ml, control 2338) was 1563 counts per minute. The “proliferation … per minute” value ([11]; Test A, 1 × 10^-2 μg/ml, control 2338) was 3108 counts per minute, the “proliferation … per minute” value ([11]; Test A, 1 × 10^-3 μg/ml, control 2338) was 2867 counts per minute and the “proliferation … per minute” value ([11]; Test A, 1 × 10^-4 μg/ml, control 2338) was 5540 counts per minute. For the same molecule, the “proliferation … per minute” value ([11]; Test A, 1 × 10^-5 μg/ml, control 2338) was 3442 counts per minute, the “proliferation … per minute” value ([11]; Test A, 5 × 10^-1 μg/ml, control 2338) was 4667 counts per minute and the “proliferation … per minute” value ([11]; Test A, 5 × 10^-2 μg/ml, control 2338) was 2515 counts per minute. For the same molecule, the “proliferation … per minute” value ([11]; Test A, 7 × 10^-1 μg/ml, control 2338) was 2475 counts per minute, the “proliferation … per minute” value ([11]; Test B, 1 μg/ml, control 5573) was 3275 counts per minute and the “proliferation … per minute” value ([11]; Test B, 1 × 10^-2 μg/ml, control 5573) was 3077 counts per minute. The “proliferation … per minute” value ([11]; Test B, 1 × 10^-3 μg/ml, control 5573) was 3800 counts per minute, the “proliferation … per minute” value ([11]; Test B, 1 × 10^-4 μg/ml, control 5573) was 2925 counts per minute and the “proliferation … per minute” value ([11]; Test B, 1 × 10^-5 μg/ml, control 5573) was 3645 counts per minute. For the same molecule, the “proliferation … per minute” value ([11]; Test B, 5 × 10^-1 μg/ml, control 5573) was 5405 counts per minute, the “proliferation … per minute” value ([11]; Test B, 5 × 10^-2 μg/ml, control 5573) was 4280 counts per minute and the “proliferation … per minute” value ([11]; Test B, 7 × 10^-1 μg/ml, control 5573) was 4302 counts per minute. The effect on proliferation [12] was “No significant effect” and the “cells positive for IL-2 receptors” value [13] was 5%.

Ph2 TeCl was tested, and the “Spleen Cells (cpm)” value [10] was 2,100 cpm.
